Converted amounts (≈) assume the structure as drawn. Like-named read-outs stand apart in the source and are kept apart here.
Legend:
Test in all cases: Minimum Inhibitory Concentration (MIC), agar dilution, standard strains
[1] = system: S. aureus K311; assay type: cell-based, Staphylococcus aureus; conditions: Table 2; Mueller-Hinton agar, 37° C., 20 hours
Description: (§1) Minimum Inhibitory Concentration (MIC)
(§2) The effectiveness of the compound according to the present invention was determined by obtaining Minimum Inhibitory Concentration (MIC) of the compounds prepared by the above Examples (I-1 to I-33) and vancomycin, which is the known compound having a potent activity against gram-positive strains, as the control drug against the standard strains. Specifically, Minimum Inhibitory Concentration was obtained by diluting the test material with a double dilution method, dispersing them in Mueller-Hinton agar medium, inoculating each of the test strain having 10^7 cfu (colny forming unit) in an amount of 2:1 to the medium and then incubating them at 37° C. for 20 hours.

[2] = system: S. aureus 241; assay type: cell-based, Staphylococcus aureus; conditions: Staphylococcus aureus, 241, 20 h, read-out: Minimum Inhibitory Concentration (MIC), S. aureus 241
Description: as §1, §2

[3] = system: S. aureus 77; assay type: cell-based, Staphylococcus aureus; conditions: for MIC: read-out: Minimum Inhibitory Concentration (MIC), S. aureus 77
Description: as §1, §2

[4] = system: Staphylococcus aureus giorgio; assay type: cell-based; conditions: for Minimum Inhibitory Concentration (MIC), S. aureus giorgio: Table 2, Mueller-Hinton agar, 37° C., 20 hours
Description: as §1, §2

[5] = system: E. faecalis L239; assay type: cell-based; conditions: Enterococcus faecalis, L239, 20 h, read-out: Minimum Inhibitory Concentration (MIC), E. faecalis L239
Description: as §1, §2

[6] = system: S. epidermidis R005; assay type: cell-based; conditions: for MIC: Staphylococcus epidermidis, read-out: Minimum Inhibitory Concentration (MIC), S. epidermidis R005
Description: as §1, §2

[7] = system: E. faecalis EFS004; assay type: cell-based; conditions: Table 2; Mueller-Hinton agar, 37° C., 20 hours
Description: as §1, §2

[8] = Table 2, Mueller-Hinton agar, 37° C., 20 hours
[9] = Staphylococcus aureus, 77, Table 2, Mueller-Hinton agar, 37° C., 20 hours
[10] = R005, Table 2, Mueller-Hinton agar, 37° C., 20 hours

Row | Minimum Inhibitory Concentration (MIC), S. aureus K311 [1] | Minimum Inhibitory Concentration (MIC), S. aureus giorgio [4] | Minimum Inhibitory Concentration (MIC), E. faecalis EFS004 [7] | MIC [3, 9] [µg/mL] | MIC [6, 10] [µg/mL] | Compound | MIC [2] [µg/mL] | MIC ([3]; Staphylococcus aureus, 77, 20 h) [µg/mL] | Minimum Inhibitory Concentration (MIC), S. aureus 77 [3, 8] | MIC ([4]; Staphylococcus aureus, 20 h, read-out: Minimum Inhibitory Concentration (MIC), Staphylococcus aureus giorgio) [µg/mL] | MIC [5] [µg/mL] | MIC ([6]; R005, 20 h) [µg/mL] | Minimum Inhibitory Concentration (MIC), S. epidermidis R005 [6, 8]
1 | 2 :g/ml | 0.031 :g/ml | 0.25 :g/ml | – | – | CCSc1nc(C)cc(SCSC2=C(C(=O)O)N3C(=O)[C@@H](NC(=O)CSc4cc(Cl)nc(Cl)c4)[C@H]3SC2)n1 [Example I-29, (6R,7R)-7-({2-[(2,6-dichloro-4-pyridinyl)sulfanyl]acetyl}amino)-3-[({[2-(ethylsulfanyl)-6-methyl-4-pyrimidinyl]sulfanyl)methyl]sulfanyl}-8-oxo-5-thia-1-azabicy-clo[4.2.0]oct-2-ene-2-carboxylic acid] | – | – | 0.5 :g/ml | – | – | – | 1 :g/ml
2 | 0.5 :g/ml | 0.016 :g/ml | 0.5 :g/ml | 0.25 (≈ 0.412 µM) | 0.25 (≈ 0.412 µM) | Nc1cc(SCSC2=C(C(=O)O)N3C(=O)[C@@H](NC(=O)CSc4cc(Cl)nc(Cl)c4)[C@H]3SC2)nc(N)n1 [Example I-24, (6R,7R)-3-({[(2,6-diamino-4-pyrimidinyl)sulfanyl]methyl}sulfanyl)-7-({2-[(2,6-dichloro-4-pyridinyl)sulfanyl]acetyl}amino)-8-oxo-5-thia-1-azabicyclo[4.2.0]oct-2-ene-2-carboxylic acid] | – | – | – | – | – | – | –
3 | 0.5 :g/ml | 0.13 :g/ml | 0.5 :g/ml | 0.25 (≈ 0.405 µM) | 0.25 (≈ 0.405 µM) | O=C(CSc1cc(Cl)nc(Cl)c1)N[C@@H]1C(=O)N2C(C(=O)O)=C(SCSc3ncnc4[nH]ncc34)CS[C@H]12 [Example I-27, (6R,7R)-7-({2-[(2,6-dichloro-4-pyridinyl)sulfanyl]acetyl}amino)-8-oxo-3-{[(1H-pyrazolo[3,4-d]pyrimidin-4-yl-sulfanyl)methyl]sulfanyl}-5-thia-1-azabicyclo[4.2. 0]oct-2-ene-2-carboxylic acid] | – | – | – | – | – | – | –

Row | Compound | Minimum Inhibitory Concentration (MIC), S. aureus K311 [1] | Minimum Inhibitory Concentration (MIC), S. aureus giorgio [4] | Minimum Inhibitory Concentration (MIC), E. faecalis EFS004 [7] | MIC [3, 9] [µg/mL] | MIC [6, 10] [µg/mL] | MIC [2] [µg/mL] | MIC ([3]; Staphylococcus aureus, 77, 20 h) [µg/mL] | Minimum Inhibitory Concentration (MIC), S. aureus 77 [3, 8] | MIC ([4]; Staphylococcus aureus, 20 h, read-out: Minimum Inhibitory Concentration (MIC), Staphylococcus aureus giorgio) [µg/mL] | MIC [5] [µg/mL] | MIC ([6]; R005, 20 h) [µg/mL] | Minimum Inhibitory Concentration (MIC), S. epidermidis R005 [6, 8]
4 | CN[C@H](CC(C)C)C(=O)N[C@H]1C(=O)N[C@@H](CC(N)=O)C(=O)N[C@H]2C(=O)N[C@H]3C(=O)N[C@H](C(=O)N[C@H](C(=O)O)c4cc(O)cc(O)c4-c4cc3ccc4O)[C@H](O)c3ccc(c(Cl)c3)Oc3cc2cc(c3O[C@@H]2O[C@H](CO)[C@@H](O)[C@H](O)[C@H]2O[C@H]2C[C@](C)(N)[C@H](O)[C@H](C)O2)Oc2ccc(cc2Cl)[C@H]1O [Vancomycin, vancomycin, reference compound] | 2 :g/ml | 1 :g/ml | 2 :g/ml | – | – | 2 (≈ 1.38 µM) | 1 (≈ 0.69 µM) | 1 :g/ml | 1 (≈ 0.69 µM) | 2 (≈ 1.38 µM) | 1 (≈ 0.69 µM) | 1 :g/ml

— patent US20030166922A1, “Novel cephalosporin compounds and process for preparing the same” (priority 2000, published 2003)
